What is called IC50 is the midpoint of a concentration-inhibition curve.

Each structure is given as a SMILES string. Bounds are passed on as bounds.

In one experiment the target is T1, Human NK1 Receptor (Homo sapiens, UniProt P25103).
T1 construct: endogenous in cells; host or cells: Human lymphoma IM9 cells (whole cells)
T1 sequence (P25103 whole entry): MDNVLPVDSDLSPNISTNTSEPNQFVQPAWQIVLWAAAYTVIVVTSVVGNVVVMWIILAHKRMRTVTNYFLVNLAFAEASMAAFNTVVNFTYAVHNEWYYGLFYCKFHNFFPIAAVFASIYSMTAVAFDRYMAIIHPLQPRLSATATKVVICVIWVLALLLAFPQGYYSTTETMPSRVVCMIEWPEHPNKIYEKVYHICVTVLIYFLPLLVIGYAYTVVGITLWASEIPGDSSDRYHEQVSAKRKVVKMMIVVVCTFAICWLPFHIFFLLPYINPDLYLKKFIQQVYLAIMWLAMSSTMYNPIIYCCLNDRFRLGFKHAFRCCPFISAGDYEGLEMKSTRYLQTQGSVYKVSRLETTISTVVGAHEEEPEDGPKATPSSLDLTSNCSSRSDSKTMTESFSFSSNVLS
The experiment in a line: In Vitro Human NK1 Receptor Binding Assay ([125I]Bolton-Hunter substance P displacement, IM9 cells). As to conditions: Human lymphoma IM9 cells, [125I]Bolton-Hunter substance P; Table 3, array-synthesis products; read-out: IC50 (nM) hNK1. An outline of the steps: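 Test compounds competed with 0.05-0.1 nM [125I]Bolton-Hunter substance P for binding to intact IM9 cells over 50 min at 21° C, pH 7.4 buffer with MnCl2 and peptidase inhibitors. […] [Sar9, Met(O2)11] substance P gave non-specific binding. Bound counts were measured after filtration and fitted iteratively.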
For the compound `O=C(O)C1CCC(CNC(=O)C(Cc2c[nH]c3ccccc23)NCc2cc3ccccc3o2)CC1` (stereo not shown) [Example 286, 4-{[2-[(Benzofuran-2-ylmethyl)-amino]-3-(1H-indol-3-yl)-propionylamino]-methyl}-cyclohexanecarboxylic acid], the IC50 was more than 10000 nM.
In the case of `N#CC(NC(=O)C(Cc1c[nH]c2ccccc12)NCc1cc2ccccc2o1)c1ccccc1` (stereo not shown) [Example 287, 2-[(Benzofuran-2-ylmethyl)-amino]-N-(cyano-phenyl-methyl)-3-(1H-indol-3-yl)-propionamide], the IC50 was 35 nM.
For the compound `O=C(NCCc1ccc(Cl)cc1)C(Cc1c[nH]c2ccccc12)NCc1cc2ccccc2o1` (stereo not shown) [Example 288, 2-[(Benzofuran-2-ylmethyl)-amino]-N-[2-(4-chloro-phenyl)-ethyl]-3-(1H-indol-3-yl)-propionamide], the IC50 was 136 nM.
For `O=C(NC(CO)Cc1ccccc1)C(Cc1c[nH]c2ccccc12)NCc1cc2ccccc2o1` (stereo not shown) [Example 289, 2-[(Benzofuran-2-ylmethyl)-amino]-N-(1-hydroxymethyl-2-phenyl-ethyl)-3-(1H-indol-3-yl)-propionamide], the IC50 was 209 nM.
In the case of `CC(NC(=O)C(Cc1c[nH]c2ccccc12)NCc1cc2ccccc2o1)c1ccc(Br)cc1` (stereo not shown) [Example 290, 2-[(Benzofuran-2-ylmethyl)-amino]-N-[1-(4-bromo-phenyl)-ethyl]-3-(1H-indol-3-yl)-propionamide], the IC50 stood at 8 nM.
`COc1cccc(CCNC(=O)C(Cc2c[nH]c3ccccc23)NCc2cc3ccccc3o2)c1` (stereo not shown) [Example 291, 2-[(Benzofuran-2-ylmethyl)-amino]-3-(1H-indol-3-yl)-N-[2-(3-methoxy-phenyl)-ethyl]-propionamide]: the IC50 is 1340 nM.
Consider `O=C(NCc1ccccc1C(F)(F)F)C(Cc1c[nH]c2ccccc12)NCc1cc2ccccc2o1` (stereo not shown) [Example 292, 2-[(Benzofuran-2-ylmethyl)-amino]-3-(1H-indol-3-yl)-N-(2-trifluoromethyl-benzyl)-propionamide], for which the IC50 was determined as 1130 nM.
Turning to `O=C(NCCc1cccc(F)c1)C(Cc1c[nH]c2ccccc12)NCc1cc2ccccc2o1` (stereo not shown) [Example 293, 2-[(Benzofuran-2-ylmethyl)-amino]-N-[2-(3-fluoro-phenyl)-ethyl]-3-(1H-indol-3-yl)-propionamide], the IC50 came out at 55 nM.
On to `CC(NC(=O)C(Cc1c[nH]c2ccccc12)NCc1cc2ccccc2o1)C1CCCCC1` (stereo not shown) [Example 294, 2-[(Benzofuran-2-ylmethyl)-amino]-N-(1-cyclohexyl-ethyl)-3-(1H-indol-3-yl)-propionamide], for which the IC50 stood at 58 nM.
For the compound `O=C(NCCSCc1ccccc1)C(Cc1c[nH]c2ccccc12)NCc1cc2ccccc2o1` (stereo not shown) [Example 296, 2-[(Benzofuran-2-ylmethyl)-amino]-N-(2-benzylsulfanyl-ethyl)-3-(1H-indol-3-yl)-propionamide], the IC50 stood at 1340 nM.
On the same count and under the same terms, the same measure for `CC(Cc1c[nH]c2ccccc12)NC(=O)C(Cc1c[nH]c2ccccc12)NCc1cc2ccccc2o1` (stereo not shown) [Example 297, 2-[(Benzofuran-2-ylmethyl)-amino]-3-(1H-indol-3-yl)-N-[2-(1H-indol-3-yl)-1-methyl-ethyl]-propionamide]: 3610 nM; for `O=C(NCc1ccccc1Cl)C(Cc1c[nH]c2ccccc12)NCc1cc2ccccc2o1` (stereo not shown) [Example 298, 2-[(Benzofuran-2-ylmethyl)-amino]-N-(2-chloro-benzyl)-3-(1H-indol-3-yl)-propionamide]: 221 nM.
As to `Cc1ccc(CCNC(=O)C(Cc2c[nH]c3ccccc23)NCc2cc3ccccc3o2)cc1` (stereo not shown) [Example 300, 2-[(Benzofuran-2-ylmethyl)-amino]-3-(1H-indol-3-yl)-N-(2-p-tolyl-ethyl)-propionamide], the IC50 amounted to 256 nM.
Regarding `O=C(NCc1ccc(F)cc1F)C(Cc1c[nH]c2ccccc12)NCc1cc2ccccc2o1` (stereo not shown) [Example 301, 2-[(Benzofuran-2-ylmethyl)-amino]-N-(2,4-difluoro-benzyl)-3-(1H-indol-3-yl)-propionamide], the IC50 turned out to be 53 nM.
Still for that read-out and setting: with `O=C(NCc1ccccc1Br)C(Cc1c[nH]c2ccccc12)NCc1cc2ccccc2o1` (stereo not shown) [Example 302, 2-[(Benzofuran-2-ylmethyl)-amino]-N-(2-bromo-benzyl)-3-(1H-indol-3-yl)-propionamide] the figure was 174 nM; with `O=C(NCc1cc(F)cc(C(F)(F)F)c1)C(Cc1c[nH]c2ccccc12)NCc1cc2ccccc2o1` (stereo not shown) [Example 303, 2-[(Benzofuran-2-ylmethyl)-amino]-N-(3-fluoro-5-trifluoromethyl-benzyl)-3-(1H-indol-3-yl)-propionamide], 17 nM; with `COC(=O)C(NC(=O)C(Cc1c[nH]c2ccccc12)NCc1cc2ccccc2o1)c1ccccc1` (stereo not shown) [Example 304, [2-[(Benzofuran-2-ylmethyl)-amino]-3-(1H-indol-3-yl)-propionylamino]-phenyl-acetic acid methyl ester], 43 nM.
For the compound `O=C(NCCOc1ccccc1)C(Cc1c[nH]c2ccccc12)NCc1cc2ccccc2o1` (stereo not shown) [Example 305, 2-[(Benzofuran-2-ylmethyl)-amino]-3-(1H-indol-3-yl)-N-(2-phenoxy-ethyl)-propionamide], the IC50 was found to be 400 nM.
For `Nc1ccc(CNC(=O)C(Cc2c[nH]c3ccccc23)NCc2cc3ccccc3o2)cc1` (stereo not shown) [Example 306, N-(4-Amino-benzyl)-2-[(benzofuran-2-ylmethyl)-amino]-3-(1H-indol-3-yl)-propionamide], the IC50 is 639 nM.
The same measure, in the same setting: the same measure for `CC(CCc1ccccc1)NC(=O)C(Cc1c[nH]c2ccccc12)NCc1cc2ccccc2o1` (stereo not shown) [Example 307, 2-[(Benzofuran-2-ylmethyl)-amino]-3-(1H-indol-3-yl)-N-(1-methyl-3-phenyl-propyl)-propionamide]: 392 nM.
Regarding `O=C(NCc1cccc(O)c1)C(Cc1c[nH]c2ccccc12)NCc1cc2ccccc2o1` (stereo not shown) [Example 308, 2-[(Benzofuran-2-ylmethyl)-amino]-N-(3-hydroxy-benzyl)-3-(1H-indol-3-yl)-propionamide], the IC50 was 731 nM.

The experiment is the same for the next values; noted with them: human NK1 receptor, IM9 cells, [125I]Bolton-Hunter substance P; read-out: IC50 (nM) hNK1.
As for `CC(Cc1c[nH]c2ccccc12)(NCc1cc2ccccc2o1)C(=O)NCc1ccccn1` (stereo not shown) [compound 23, 2-[(Benzofuran-2-ylmethyl)-amino]-3 (1H-indol-3-yl)-2-methyl-N-pyridin-2 ylmethyl-propionamide], the IC50 was 1280 nM.
On the same count and under the same terms, the same measure for `CC(Cc1c[nH]c2ccccc12)(NCc1cc2ccccc2o1)C(=O)NCc1cccnc1` (stereo not shown) [compound 24, 2-[(Benzofuran-2-ylmethyl)-amino]-3-(1H-indol-3-yl)-2-methyl-N-pyridin-3-ylmethyl-propionamide]: 547 nM; for `CC(Cc1c[nH]c2ccccc12)(NCc1cc2ccccc2o1)C(=O)NCc1ccncc1` (stereo not shown) [compound 25, 2-[(Benzofuran-2-ylmethyl)-amino]-3-(1H-indol-3-yl)-2-methyl-N-pyridin-4-ylmethyl-propionamide]: 131 nM; for `CC(Cc1c[nH]c2ccccc12)(NCc1cc2ccccc2o1)C(=O)NC1CCCCC1` (stereo not shown) [compound 26, 2-[(Benzofuran-2-ylmethyl)-amino]-N-cyclohexyl-3-(1H-indol-3-yl)-2-methyl-propionamide]: 1010 nM.
Still for that read-out and setting: the same measure for `CC(Cc1c[nH]c2ccccc12)(NCc1cc2ccccc2o1)C(=O)NCC1CCCCC1` (stereo not shown) [compound 27, 2-[(Benzofuran-2-ylmethyl)-amino]-N-cyclohexylmethyl-3-(1H-indol-3-yl)-2-methyl-propionamide]: 311 nM.
Turning to `CC(Cc1c[nH]c2ccccc12)(NCc1cc2ccccc2o1)C(=O)NCc1ccccc1` (stereo not shown) [compound 28, 2-[(Benzofuran-2-ylmethyl)-amino]-N-benzyl-3-(1H-indol-3-yl)-2-methyl-propionamide], the IC50 came to 44 nM.
Take `CC(Cc1c[nH]c2ccccc12)(NCc1cc2ccccc2o1)C(=O)NC(CO)c1ccccc1` (stereo not shown) [compound 29, 2-[(Benzofuran-2-ylmethyl)-amino]-N-(2-hydroxy-1-phenyl-ethyl)-3-(1H-indol-3-yl)-2-methyl-propionamide]: the IC50 came to 7 nM.
Take `CC(NC(=O)C(C)(Cc1c[nH]c2ccccc12)NCc1cc2ccccc2o1)c1ccc(Cl)cc1` (stereo not shown) [compound 30, 2-[(Benzofuran-2-ylmethyl)-amino]-N-[1-(4-chloro-phenyl)-ethyl]-3-(1H-indol-3-yl)-2-methyl-propionamide]: the IC50 stood at 17 nM.
With `CC(NC(=O)C(C)(Cc1c[nH]c2ccccc12)NCc1cc2ccccc2o1)c1cccc2ccccc12` (stereo not shown) [compound 31, 2-[(Benzofuran-2-ylmethyl)amino]-3-(1H-indol-3-yl)-2-methyl-N-(1-naphthalen-1-yl-ethyl)-propionamide], the half-maximal inhibitory concentration (IC50) was more than 10000 nM.
On the same count and under the same terms, the same measure for `CC(NC(=O)C(C)(Cc1c[nH]c2ccccc12)NCc1cc2ccccc2o1)c1cccc2ccccc12` (stereo not shown) [compound 32, 2-[(Benzofuran-2-ylmethyl)-amino]-3-(1H-indol-3-yl)-2-methyl-N-(1-naphthalen-1-yl-ethyl)-propionamide]: more than 10000 nM; for `CC(NC(=O)C(C)(Cc1c[nH]c2ccccc12)NCc1cc2ccccc2o1)c1ccc(F)cc1` (stereo not shown) [compound 33, 2-[(Benzofuran-2-ylmethyl)-amino]-N-[1-(4-fluoro-phenyl)-ethyl]-3-(1H-indol-3-yl)-2-methyl-propionamide]: 9 nM; for `CC(NC(=O)C(C)(Cc1c[nH]c2ccccc12)NCc1cc2ccccc2o1)c1ccc([N+](=O)[O-])cc1` (stereo not shown) [compound 34, 2-[(Benzofuran-2-ylmethyl)-amino]-3-(1H-indol-3-yl)-2-methyl-N-[1-(4-nitro-phenyl)-ethyl]-propionamide]: 14 nM.
Take `COc1ccc(C(C)NC(=O)C(C)(Cc2c[nH]c3ccccc23)NCc2cc3ccccc3o2)cc1` (stereo not shown) [compound 35, 2-[(Benzofuran-2-ylmethyl)-amino]-3-(1H-indol-3-yl)-N-[1-(4-methoxy-phenyl)-ethyl]-2-methyl-propionamide]: the IC50 came to 31 nM.

(Values after patent US6472418B1, “Non-peptide NK1 receptors antagonists” (Warner-Lambert Company, priority 1998, dated 2002).)
